# From patent publication US8653054B2, “2-(N-substituted piperazinyl) steroid derivatives” (Universite Laval, priority 2008, dated 2014)
# Read-outs that look alike come from different tables or passages of the source.
# What was measured:
# [1] = tested on: HL-60 acute promyelocytic leukemia cells; test: Cell proliferation assay (MTS) on HL-60 leukemia cells; assay type: cell-based, human;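 also: cells exposed to serially diluted compound for 3 days at 37 °C, then viable cell number read via MTS conversion to coloured formazan by metabolically active cells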
# Procedure: (§1) All of the following cell lines were maintained under a CO2 humidified atmosphere at 37° C. The culture media were changed every 3-4 days and the cells were split once a week.
# (§2) For the assay, the culture medium was the same.
# (§3) The cell proliferation assay was performed using 3-(4,5-dimethylthiazol-2-yl)-5-(3-carboxymethoxyphenyl)2-(4-sulfophenyl)-2H-tetrazolium (MTS) (Cell Titer 96 Aqueous, Promega, USA). MTS is converted into water-soluble colored formazan by dehydrogenase enzymes present in metabolically active cells, which allows the measurement of the number of viable cells.
# (§4) The cells were incubated at 37° C. and 5% CO2. The steroid derivatives of the present disclosure were dissolved in ethanol to prepare the 1×10^−2 M stock solutions. The stock solutions and doxorubicin (DOX) (Novapharm, Toronto, Canada) were diluted at multiple concentrations with culture media, added to each well, as indicated, and incubated for 3 days. Following each treatment, 20 μl MTS was added to each well and the mix was incubated for 4 h.
# [2] = Plasmatic concentration (AUC) of aminosteroids after a single subcutaneous injection in rat; conditions: 2.3 mg/kg; for AUC (0-3 h) / AUC (0-12 h): Table 6, subcutaneous one time; for AUC (7 h) / AUC (24 h) / AUC(12 h): Table 5, subcutaneous one time
# Procedure: (§5) Animals: Six to seven week-old male Sprague-Dawley rats (Crl:CD®(SD)Br VAF/Plus™) weighing approximately 220 g were obtained from Charles-River, Inc (St-Constant, Qc., Canada). The animals were acclimatized to environmental conditions (temperature: 22±3° C.; humidity: 50±20%; 12-h light/12-h dark cycles, lights on at 07:15 h) for at least 5 days before starting the experiment. The animals were housed three per cage and were allowed free access to water and a certified commercial rodent food (Rodent Diet #T.2018.15, Harlan Teklad, Madison, Wis., U.S.A.) and were randomized according to their body weight.
# (§6) Assay: A pharmacokinetic study was carried out following one subcutaneous (s.c.) injection of the aminosteroids at one concentration (2.3 mg/kg of body weight in 0.5 mL of vehicle fluid). The compound was first dissolved in Ethanol (EtOH) followed by the addition of propylene glycol such that a final concentration of EtOH of 8% was obtained. During this experiment, the rats were housed individually and were fasted for 8h before injection of the aminosteroid. Blood samples for determination of aminosteroid plasma concentration were collected at the jugular vein (0.4 mL by animal) at target intervals of 3, 7, 12 and 24 h (or 3 and 12 h) post-dose from six rats per time point (Tables 5, 6 and 7). After the collect at 7 h, a replacement fluid (0.9% sodium chloride injection USP) was injected in the rat. Blood samples were collected in Microvette potassium-EDTA (ethylenediamine tetra-acetic acid)-coated tubes (Sarstedt, Aktiengesellchaft & Co, Germany) and centrifuged at 3200 rpm for 10 minutes at 4° C. The plasma was collected and stored at −80° C. until analyzed by liquid chromatography/mass spectrometry/mass spectrometry (LC/MS/MS) analysis.
# (§7) Aminosteroid measurement: The concentration of the aminosteroid was determined by LC/MS/MS analysis using a procedure developed at the CHUQ (CHUL)—Research Center (Québec, Qc, Canada). Briefly, for extraction from serum, 100 νL, of the serum sample was transferred to individual tubes and 600 μL of ammonium acetate (1 mM) was added. A methanolic solution (50 μL) containing a steroidal internal standard was then added to each tube. Samples were transferred on Strata-X SPE columns (Phenomenex, Torrance, Calif., USA), which have been conditioned with 2 mL of MeOH and 2 mL of water. Each column was washed with 2 mL of MeOH:water (10:90, v/v). The aminosteroid was then eluted with 5 mL of MeOH containing 5 mM ammonium acetate. The MeOH was evaporated at 45° C. under inert atmosphere and the dried residue dissolved in 100 μL of MeOH:water (85:15, v/v). […] The inhibitor was detected using an API 3000 mass spectrometer, equipped with TurbolonSpray (Applied Biosystems, Canada). ESI in positive ion mode was used.
# [3] = in vivo; conditions: male, Sprague-Dawley, rat, sc, 2.3 mg/kg
# Procedure: as §5, §6, §7
# [4] = tested on: LNCaP prostate cancer cells; test: Cell proliferation assay (MTS) on LNCaP prostate cancer cells; assay type: cell-based; conditions: Table 3, 3 days incubation
# Procedure: as §3, §4
# [5] = tested on: OVCAR-3 ovarian cancer cells; test: Cell proliferation assay (MTS) on OVCAR-3 ovarian cancer cells; assay type: cell-based
# From the text: For the assay, the culture medium was the same, but without estradiol.
# [6] = tested on: PC-3 (AR−) prostate cancer cells; test: Cell proliferation assay (MTS) on PC-3 (AR−) prostate cancer cells; assay type: cell-based; conditions: Table 3, 3 days incubation
# [7] = tested on: MCF-7 breast cancer cells; test: Cell proliferation assay (MTS) on MCF-7 breast cancer cells; assay type: cell-based, human; conditions: Table 3, 3 days incubation
# Procedure: MCF-7 breast cancer cells were maintained in Dulbecco's Modified Eagle's Medium (DMEM) containing a nutriment mixture F-12 ham (DME-F12) (Sigma, Saint Louis, USA) supplemented with 5% (v/v) fetal bovine serum (FBS), L-glutamine ([…]), penicillin (100 IU/ml), streptomycin sulphate (50 μg/ml) and estradiol (1 nM). For the assay, DME-F12 was supplemented with 5% (v/v) charcoal-strippes FBS, insulin (50 ng/ml) and the same concentrations of antibiotics as above.
# [8] = tested on: Shionogi mammary carcinoma cells (AR+); test: Cell proliferation assay (MTS) on Shionogi mammary carcinoma cells; assay type: cell-based; conditions: Table 3, 3 days incubation
# Procedure: Shionogi mammary carcinoma cells bearing androgen-sensitive (AR+) were routinely grown in Eagle's Minimal Essential Medium (MEM) (Sigma, Saint Louis, USA) supplemented with 5% (v/v) fetal bovine serum (FBS), penicillin (100 IU/ml), streptomycin sulphate (50 μg/ml), 1% (v/v) non-essential amino acids and dihydrotestosterone DHT (10^−8 M). For the assay, MEM devoid of the pH indicator phenol red was supplemented with 2% (v/v) charcoal-strippes FBS and the same concentrations of antibiotics and non-essential amino acids as above.
# [9] = tested on: normal lymphocytes from peripheral blood; test: Cell proliferation assay (MTS) on normal lymphocytes; conditions: read-out: IC50 Lymph Norm.
# Procedure: as §1, §2, §3, §4
# [10] = tested on: WI-38 diploid fibroblasts; test: Cell proliferation assay (MTS) on WI-38 normal fibroblasts; assay type: cell-based, human; conditions: Table 3, normal cells, 3 days incubation
# Procedure: WI-38 diploid fibroblasts derived from embryonic human lung were cultured in MEM (devoid of the pH indicator phenol red) supplemented with 10% (v/v) FBS, L-glutamine (2 nM), penicillin (100 IU/ml), streptomycin sulphate (50 μg/ml), sodium pyruvate (1 mM) and non-essential amino acids (0.1 mM).
# as §3, §4
# [11] = tested on: K-562 leukemia cells; test: Cell proliferation assay (MTS) on K-562 leukemia cells; assay type: cell-based; conditions: Table 3, 3 days incubation
# Procedure: as §1, §2, §3, §4
# [12] = tested on: MDA-MB-231 (ER−) breast cancer cells; test: Cell proliferation assay (MTS) on MDA-MB-231 (ER−) breast cancer cells; assay type: cell-based; conditions: Table 3, 3 days incubation
# Procedure: as §1, §2, §3, §4
# [13] = Table 4, HL-60 cancer cell line, read-out: IC50
# [14] = Table 6, HL-60 cancer cell line, read-out: IC50 (HL-60)
# [15] = Homo sapiens, Table 4, HL-60 cancer cell line, read-out: IC50
# [16] = Homo sapiens, Table 6, HL-60 cancer cell line, read-out: IC50 (HL-60)
# [17] = Homo sapiens, OVCAR-3, 72 h, Table 3, 3 days incubation, MTS
# [18] = Homo sapiens, HL-60, 72 h, Table 3, 3 days incubation, MTS, read-out: IC50 HL-60
# [19] = Table 3, 3 days incubation, MTS
# [20] = Table 3, 3 days incubation, MTS, read-out: IC50 HL-60
# [21] = Table 3, normal lymphocytes, 3 days incubation, MTS
structure (smiles),measurement,setting,value
"C#C[C@]1(O)CC[C@H]2[C@@H]3CC[C@H]4C[C@H](O)[C@@H](N5CCN(C(=O)[C@@H]6CCCN6C(=O)c6ccc7ccccc7c6)CC5)C[C@]4(C)[C@H]3CC[C@@]21C [26 (AH-71), {4-[(2β,3α,5α,17α)-3,17-dihydroxypregn-20-yn-2-yl]piperazin-1-yl}[(2S)-1-(naphthalen-2-ylcarbonyl)pyrrolidin-2-yl]methanone]",IC50,[1]; [13],1.9 µM
same,IC50,[1]; [14],1.9 µM
same,AUC (0-3 h),[2],278 ng·h/mL
same,AUC (0-12 h),[2],1338 ng·h/mL
"C[C@]12C[C@H](N3CCN(C(=O)[C@@H]4CCCN4C(=O)c4ccc5ccccc5c4)CC3)[C@@H](O)C[C@@H]1CC[C@@H]1[C@@H]2CC[C@@]2(C)[C@H]1CC[C@]2(C)O [30 (AH-56), {4-[(2β,3α,17β)-3,17-dihydroxy-17-methylandrostan-2-yl]piperazin-1-yl}[(2S)-1-(naphthalen-2-ylcarbonyl)pyrrolidin-2-yl]methanone]",IC50,[1]; [13],4.7 µM
same,IC50,[1]; [14],4.7 µM
same,AUC (0-3 h),[2],183 ng·h/mL
same,AUC (0-12 h),[2],876 ng·h/mL
"C[C@]12CC[C@H]3[C@@H](CCC4C[C@H](O)[C@@H](N5CCN(C(=O)[C@@H]6CCCN6C(=O)c6cc7ccccc7cn6)CC5)C[C@@]43C)[C@@H]1CC[C@@H]2O (stereo partly drawn) [31 (AH-38), {4-[(2β,3α,17β)-3,17-dihydroxyandrostan-2-yl]piperazin-1-yl}[(2S)-1-(isoquinolin-3-ylcarbonyl)pyrrolidin-2-yl]methanone]",AUC(0-t),[3]; AUC (0-3 h),244 ng·h/mL
same,AUC(0-t),[3]; AUC (0-12 h),991 ng·h/mL
same,IC50,[1]; [15],1.6 µM
same,IC50,[1]; [16],1.6 µM
"C[C@]12CC[C@H]3[C@@H](CCC4C[C@H](O)[C@@H](N5CCN(C(=O)[C@@H]6CCCN6C(=O)c6ccc7ncccc7c6)CC5)C[C@@]43C)[C@@H]1CC[C@@H]2O (stereo partly drawn) [32 (AH-47), {4-[(2β,3α,17β)-3,17-dihydroxyandrostan-2-yl]piperazin-1-yl}[(2S)-1-(quinolin-6-ylcarbonyl)pyrrolidin-2-yl]methanone]",AUC(0-t),[3]; AUC (0-3 h),292 ng·h/mL
same,AUC(0-t),[3]; AUC (0-12 h),1170 ng·h/mL
same,IC50,[1]; [15],4.7 µM
same,IC50,[1]; [16],4.7 µM
"C[C@]12CC[C@H]3[C@@H](CCC4C[C@H](O)[C@@H](N5CCN(C(=O)[C@@H]6CCCN6C(=O)c6ccc7ccccc7n6)CC5)C[C@@]43C)[C@@H]1CC[C@@H]2O (stereo partly drawn) [33 (AH-62), {4-[(2β,3α,17β)-3,17-dihydroxyandrostan-2-yl]piperazin-1-yl}[(2S)-1-(quinolin-2-ylcarbonyl)pyrrolidin-2-yl]methanone]",AUC(0-t),[3]; AUC (0-3 h),185 ng·h/mL
same,AUC(0-t),[3]; AUC (0-12 h),752 ng·h/mL
same,IC50,[1]; [15],1.4 µM
same,IC50,[1]; [16],1.4 µM
"CO[C@H]1CC[C@H]2[C@@H]3CCC4C[C@H](O)[C@@H](N5CCN(C(=O)[C@@H]6CCCN6C(=O)c6ccc7ccccc7c6)CC5)C[C@]4(C)[C@H]3CC[C@]12C (stereo partly drawn) [37 (AH-55), {4-[(2β,3α,17β)-3-hydroxy-17-methoxyandrostan-2-yl]piperazin-1-yl}[(2S)-1-(naphthalen-2-ylcarbonyl)pyrrolidin-2-yl]methanone]",AUC(0-t),[3]; AUC (0-3 h),50 ng·h/mL
same,AUC(0-t),[3]; AUC (0-12 h),234 ng·h/mL
same,IC50,[1]; [15],4.5 µM
same,IC50,[1]; [16],4.5 µM
"C[C@]12C[C@H](N3CCN(C(=O)[C@@H]4CCCN4C(=O)c4ccc5ccccc5c4)CC3)[C@@H](OC(=O)c3ccccc3C(=O)O)C[C@@H]1CC[C@@H]1[C@@H]2CC[C@]2(C)[C@@H](OC(=O)c3ccccc3C(=O)O)CC[C@@H]12 [38 (AH-75), 2,2′-{[(2β,3α,5α,17β)-2-{4-[1-(naphthalen-2-ylcarbonyl)-L-prolyl]piperazin-1-yl}androstane-3,17-diyl]bis(oxycarbonyl)}dibenzoic acid]",AUC(0-t),[3]; AUC (0-3 h),38 ng·h/mL
same,AUC(0-t),[3]; AUC (0-12 h),72 ng·h/mL
same,IC50,[1]; [15],> 10 µM
same,IC50,[1]; [16],> 10 µM
"C[C@]12CC[C@H]3[C@@H](CCC4C[C@H](OS(N)(=O)=O)[C@@H](N5CCN(C(=O)[C@@H]6CCCN6C(=O)c6ccc7ccccc7c6)CC5)C[C@@]43C)[C@@H]1CC[C@@H]2OS(N)(=O)=O (stereo partly drawn) [39 (AH-70), (2β,3α,17β)-2-{4-[1-(naphthalen-2-ylcarbonyl)-L-prolyl]piperazin-1-yl}androstane-3,17-diyl disulfamate]",AUC(0-t),[3]; AUC (0-3 h),11 ng·h/mL
same,AUC(0-t),[3]; AUC (0-12 h),67 ng·h/mL
same,IC50,[1]; [15],5 µM
same,IC50,[1]; [16],5 µM
"COc1cccc2c1C(=O)c1c(O)c3c(c(O)c1C2=O)C[C@@](O)(C(=O)CO)C[C@@H]3O[C@H]1C[C@H](N)[C@H](O)[C@H](C)O1 [Doxorubicin, reference compound]",IC50,"[4]; Homo sapiens, LNCaP, 72 h",0.1 µM
same,IC50,"[5]; Homo sapiens, OVCAR-3",0.9 µM
same,IC50,[5]; [17],0.9 µM
same,IC50,"[6]; PC3/AR, 72 h",0.9 µM
same,IC50,[1]; [18],0.08 µM
same,IC50,"[7]; Homo sapiens, MCF7, 72 h",> 10 µM
same,IC50,[8]; 72 h,1.3 µM
same,IC50,"[9]; Lymphocyte, 72 h",0.16 µM
same,IC50,"[10]; Homo sapiens, WI-38, 72 h",3 µM
same,IC50,"[11]; Homo sapiens, K562, 72 h",0.4 µM
same,IC50,"[12]; Homo sapiens, MDA-MB-231, 72 h",0.9 µM
"CC(=O)c1cccc(C(=O)N[C@@H](Cc2ccccc2)C(=O)N2CCN([C@H]3C[C@@]4(C)[C@@H](CC[C@@H]5[C@@H]4CC[C@]4(C)[C@@H](O)CC[C@@H]54)C[C@@H]3O)CC2)c1 [FC-48, 3-acetyl-N-[(2S)-1-{4-[(2β,3α,5α,17β)-3,17-Dihydroxyandrostan-2-yl]piperazin-1-yl}1-oxo-3-phenylpropan-2-yl]benzamide]",AUC(0-t),[3]; AUC (7 h),290 ng·h/mL
same,AUC(0-t),[3]; AUC (24 h),555 ng·h/mL
same,AUC(0-t),[3]; AUC(12 h),413 ng·h/mL
same,IC50,"[4]; Homo sapiens, LNCaP, 72 h",2.2 µM
same,IC50,[5]; [17],1.6 µM
same,IC50,"[6]; PC3/AR, 72 h",> 10 µM
same,IC50,[1]; [18],1.8 µM
same,IC50,"[7]; Homo sapiens, MCF7, 72 h",1.5 µM
same,IC50,[8]; 72 h,1.3 µM
same,IC50,"[9]; Lymphocyte, 72 h",> 50 µM
same,IC50,"[10]; Homo sapiens, WI-38, 72 h",> 10 µM
same,IC50,"[11]; Homo sapiens, K562, 72 h",> 10 µM
same,IC50,"[12]; Homo sapiens, MDA-MB-231, 72 h",> 10 µM
CC[C@]1(O)CC[C@H]2[C@@H]3CC[C@H]4C[C@H](O)[C@@H](N5CCN(C(=O)[C@@H]6CCCN6C(=O)c6cccc7ccccc67)CC5)C[C@]4(C)[C@H]3CC[C@@]21C [LPC-37],AUC (7 h),[2],372 ng·h/mL
same,AUC (24 h),[2],681 ng·h/mL
same,AUC(12 h),[2],525 ng·h/mL
"C[C@]12C[C@H](N3CCN(C(=O)[C@@H]4CCCN4C(=O)c4ccc(C#N)cc4)CC3)[C@@H](O)C[C@@H]1CC[C@@H]1[C@@H]2CC[C@]2(C)[C@@H](O)CC[C@@H]12 [PC-41, 4-{[(2S)-2-({4-[(2β,3α,5α,17β)-3,17-dihydroxyandrostan-2-yl]piperazin-1-yl}carbonyl)pyrrolidin-1-yl]carbonyl}benzonitrile]",IC50,"[4]; Homo sapiens, LNCaP, 72 h",1 µM
same,IC50,[5]; [17],0.8 µM
same,IC50,"[6]; PC3/AR, 72 h",6.5 µM
same,IC50,[1]; [18],3.1 µM
same,IC50,"[7]; Homo sapiens, MCF7, 72 h",0.4 µM
same,IC50,[8]; 72 h,0.2 µM
same,IC50,"[9]; Lymphocyte, 72 h",19.3 µM
same,IC50,"[10]; Homo sapiens, WI-38, 72 h",> 10 µM
same,IC50,"[11]; Homo sapiens, K562, 72 h",> 10 µM
same,IC50,"[12]; Homo sapiens, MDA-MB-231, 72 h",> 10 µM
C[C@]12C[C@H](N3CCN(C(=O)[C@@H]4CCCN4C(=O)/C=C/c4ccccc4)CC3)[C@@H](O)C[C@@H]1CC[C@@H]1[C@@H]2CC[C@]2(C)[C@@H](O)CC[C@@H]12 [PC-42],IC50,[4],0.5 µM
same,IC50,[5]; [19],0.8 µM
same,IC50,[6],4 µM
same,IC50,[1]; [20],1.5 µM
same,IC50,[7],0.4 µM
same,IC50,[8],0.2 µM
same,AUC (7 h),[2],641 ng·h/mL
same,AUC (24 h),[2],767 ng·h/mL
same,AUC(12 h),[2],751 ng·h/mL
same,IC50,[9]; [21],7.9 µM
same,IC50,[10],> 10 µM
same,IC50,[11],9.3 µM
same,IC50,[12],> 10 µM
C=C(C)[C@H]1CC=C(C(=O)N2CCC[C@H]2C(=O)N2CCN([C@H]3C[C@@]4(C)[C@@H](CC[C@@H]5[C@@H]4CC[C@]4(C)[C@@H](O)CC[C@@H]54)C[C@@H]3O)CC2)CC1 [PC-46],IC50,[4],0.9 µM
same,IC50,[5]; [19],1.3 µM
same,IC50,[6],4 µM
same,IC50,[1]; [20],1.9 µM
same,IC50,[7],0.7 µM
same,IC50,[8],0.2 µM
same,AUC (7 h),[2],771 ng·h/mL
same,AUC (24 h),[2],830 ng·h/mL
same,AUC(12 h),[2],830 ng·h/mL
same,IC50,[9]; [21],9.3 µM
same,IC50,[10],> 10 µM
same,IC50,[11],14.1 µM
same,IC50,[12],> 10 µM
